Consider three compounds from patent US20210338846A1, “COMPETITIVE PROSTATE-SPECIFIC MEMBRANE ANTIGEN (PSMA) BINDING AGENTS FOR REDUCTION OF NON-TARGET ORGAN UPTAKE OF RADIOLABELED PSMA INHIBITORS FOR PSMA POSITIVE TUMOR IMAGING AND RADIOPHARMACEUTICAL THERAPY” (The Johns Hopkins University, priority 2018, published 2021).

Data set [1] relates to PSMA+ PC-3 PiP and PSMA− PC-3 flu tumors. The data set can be described thus: Biodistribution of [177Lu]VK-03-27 without and with co-injection of competing inhibitor VK-03-27. The format is in vivo, mice. Conditions: VK-03-27 (no Lu complex) as the CI.
For data set [2] the test system is unchanged. Nature of the data set: Biodistribution of [177Lu]VK-I-45 without and with co-injection of competing inhibitor [Lu]VK-I-45. Format: in vivo, mice. Conditions: for Biodistribution: Blood / Biodistribution: Flu tumor / Biodistribution: PiP tumor / Biodistribution: Salivary gland / Biodistribution: kidneys / Biodistribution: spleen / Biodistribution: stomach: 2 Hour. An excerpt: VK-01-45 and its Lu-177 complex was reported in international PCT patent application publication no. WO 2017/165473 A, to Ray et al., which is incorporated herein by reference in its entirety. […] This approach can be applied to all compounds in WO 2017/165473 A1, to Ray et al.

The mark [3] stands for this setting: co-injection 0.1 nmole [Lu]VK-I-45.
Setting [4] is: co-injection 0.5 nmole [Lu]VK-I-45.
Where [5] appears, read: co-injection 1.0 nmole [Lu]VK-I-45.
The mark [6] stands for this setting: co-injection 5.0 nmole [Lu]VK-I-45.

As for `O=C(O)CC[C@H](NC(=O)N[C@@H](CCCCN(Cc1ccc(Br)cc1)C(=O)CCCCNC(=O)CCC(C(=O)O)N1CCN(CC(=O)O)CCN(CC(=O)O)CCN(CC(=O)O)CC1)C(=O)O)C(=O)O` (stereo partly shown) [VK-03-27], the “effect of competing inhibitor on uptake of [177Lu]VK-03-27” value in data set [1] was “reduces the uptake in kidneys, salivary glands and Lacrimal glands”.

Take `O=C([O-])CN1CCN(CC(=O)[O-])CCN(CC(=O)NCCCCC(=O)N(CCCC[C@H](NC(=O)N[C@@H](CCC(=O)O)C(=O)O)C(=O)O)Cc2ccc(Br)cc2)CCN(CC(=O)[O-])CC1.[Lu+3]` [[Lu]VK-01-45]: the “effect of competing inhibitor on two-hour kidney uptake and retention of [177Lu]VK-01-45” value in data set [2] (self blocking, only a modest reduction in PSMA+PiP tumor uptake) is listed as “can be reduced”.

For `O=C([O-])CN1CCN(CC(=O)[O-])CCN(CC(=O)NCCCCC(=O)N(CCCC[C@H](NC(=O)N[C@@H](CCC(=O)O)C(=O)O)C(=O)O)Cc2ccc(Br)cc2)CCN(CC(=O)[O-])CC1.[177Lu+3]` [[^177Lu]VK-I-45], in data set [2] (No CI), the “Biodistribution: Blood” value is listed as 0.1 ± 0.04 % injected dose/gram, the “Biodistribution: Flu tumor” value is recorded as 0.3 ± 0.06 % injected dose/gram, the “Biodistribution: PiP tumor” value stood at 39 ± 14 % injected dose/gram and the “Biodistribution: Salivary gland” value stood at 0.16 ± 0.07 % injected dose/gram. In data set [2] (No CI), the “Biodistribution: kidneys” value worked out at 35 ± 17 % injected dose/gram, the “Biodistribution: spleen” value worked out at 0.7 ± 0.2 % injected dose/gram and the “Biodistribution: stomach” value is 0.1 ± 0.04 % injected dose/gram. Further, in data set [2] (setting [3]), the “Biodistribution: Blood” value turned out to be 0.12 ± 0.02 % injected dose/gram, the “Biodistribution: Flu tumor” value came to 0.4 ± 0.07 % injected dose/gram, the “Biodistribution: PiP tumor” value was 38 ± 4 % injected dose/gram and the “Biodistribution: Salivary gland” value was 0.16 ± 0.03 % injected dose/gram. Besides, in data set [2] (setting [3]), the “Biodistribution: kidneys” value was determined as 17 ± 11 % injected dose/gram, the “Biodistribution: spleen” value was 0.65 ± 0.1 % injected dose/gram and the “Biodistribution: stomach” value is listed as 0.2 ± 0.08 % injected dose/gram. In data set [2] (setting [4]), the “Biodistribution: Blood” value is given as 0.11 ± 0.04 % injected dose/gram, the “Biodistribution: Flu tumor” value is 0.35 ± 0.07 % injected dose/gram, the “Biodistribution: PiP tumor” value stood at 35 ± 8 % injected dose/gram and the “Biodistribution: Salivary gland” value amounted to 0.12 ± 0.02 % injected dose/gram. Also, in data set [2] (setting [4]), the “Biodistribution: kidneys” value stood at 4.8 ± 1.4 % injected dose/gram, the “Biodistribution: spleen” value is recorded as 0.32 ± 0.07 % injected dose/gram and the “Biodistribution: stomach” value is listed as 0.09 ± 0.02 % injected dose/gram. In data set [2] (setting [5]), the “Biodistribution: Blood” value is listed as 0.07 ± 0.02 % injected dose/gram, the “Biodistribution: Flu tumor” value amounted to 0.2 ± 0.03 % injected dose/gram, the “Biodistribution: PiP tumor” value is given as 20 ± 1.5 % injected dose/gram and the “Biodistribution: Salivary gland” value is 0.07 ± 0.01 % injected dose/gram. Also, in data set [2] (setting [5]), the “Biodistribution: kidneys” value is given as 1.75 ± 0.32 % injected dose/gram, the “Biodistribution: spleen” value is reported as 0.15 ± 0.02 % injected dose/gram and the “Biodistribution: stomach” value turned out to be 0.13 ± 0.08 % injected dose/gram. Further, in data set [2] (setting [6]), the “Biodistribution: Blood” value was determined as 0.8 ± 0.04 % injected dose/gram, the “Biodistribution: Flu tumor” value came out at 0.36 ± 0.14 % injected dose/gram, the “Biodistribution: PiP tumor” value came out at 17.3 ± 1.9 % injected dose/gram and the “Biodistribution: Salivary gland” value was 0.11 ± 0.04 % injected dose/gram. In data set [2] (setting [6]), the “Biodistribution: kidneys” value is recorded as 1.35 ± 0.44 % injected dose/gram, the “Biodistribution: spleen” value was found to be 0.14 ± 0.06 % injected dose/gram and the “Biodistribution: stomach” value came to 0.2 ± 0.18 % injected dose/gram.
